The numbers were not newly measured in patent US20260229307A1, “CLEAVED NEOEPITOPES” (IOGENETICS, LLC, priority 2023, published 2026), which cites them from elsewhere.

For data set [1] the following is noted: human muscular dystrophy trial.
For data set [2] the following is noted: relative to E64.

Regarding `CCOC(=O)[C@H]1O[C@@H]1C(=O)N[C@@H](CC(C)C)C(=O)NCCC(C)C` [aloxistatin], the safety in humans result in data set [1] is “demonstrate the safety”. In addition, in data set [2], the “cell permeability and adsorption” value is “improved cell permeability and adsorption”.
